Source: patent US20250034135A1, “ANTI-APOPTOTIC PROTEIN BCL-2 INHIBITOR, PHARMACEUTICAL COMPOSITION AND USES THEREOF” (HANGZHOU HEALZEN THERAPEUTICS CO., LTD., priority 2021, published 2025)
Read-outs that look alike come from different tables or passages of the source.

What was measured:
[1] = biological target: BCL2 (G101V) (Homo sapiens (Human), UniProt P10415, G101V); assay: Molecular level activity test of anti-apoptotic protein BCL2 (G101V) (HTRF, binding to Bim peptide); settings: inhibition of BCL2 (G101V) binding to Bim peptide, read-out: BCL-2 (G101V)
Procedure, shortened: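 His-tagged recombinant BCL2 (G101V) incubated 1 h with biotin-BIM peptide and compound (2% DMSO), then anti-His and streptavidin-XL665 detection reagents added for 4 h at room temperature. HTRF signal reflects compound effect on BCL2–BIM binding.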

[2] = biological target: BCL2 (D103Y) (Homo sapiens (Human), UniProt P10415, D103Y); assay: Molecular level activity test of BCL2 (D103Y) (HTRF, binding to Bim peptide); settings: read-out: BCL-2 (D103Y) (nM) (inhibitory activity, IC50)
Procedure, shortened: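 His-tagged recombinant protein mixed with biotinylated BIM peptide and compound (2% DMSO), reacted 1 h. Anti-His and streptavidin-XL665 detection reagents then added and incubated 4 h at room temperature before HTRF read-out of binding inhibition.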

[3] = test system: RS4; 11 cells; assay: Tumor proliferation inhibitory activity test (MTS) on RS4; 11; type: cell-based; settings: Homo sapiens, RS4-11, 72 h, 3 days incubation
Procedure, shortened: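 RS4;11 cells were exposed to serially diluted compound (0.2% DMSO control) for 3 days at 37 °C/5% CO2, followed by MTS for 3–4 h. Read-out was OD490−OD690, and inhibition was calculated relative to the DMSO and blank wells.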

[4] = biological target: BCL-XL (Homo sapiens (Human), UniProt Q07817); assay: BCL-XL enzyme molecular level activity test (HTRF, binding to BIM peptide); settings: binding of BCL-XL to BIM peptide, read-out: BCL-XL inhibitory activity (IC50)
Procedure, shortened: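 HTRF binding assay: His-tagged recombinant BCL-XL with biotin-BIM peptide and compound (2% DMSO), 1 h. Anti-His and streptavidin-XL665 detection reagents added, 4 h at room temperature. Excitation 320 nm; 665/615 nm ratio reflects binding, with no-protein background and no-compound full-binding controls.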

[5] = test system: human platelets; assay: Platelet viability test (CTG); type: cell-based; settings: CTG after 24 h
Method: After 10 mL of platelet-rich plasma was added to 30 mL of ACD-A solution and uniformly mixed, centrifugation was performed at 1200 g, and the supernatant was discarded; 10 mL of ACD-A solution was added, resuspended, uniformly mixed, and centrifuged at 1200 g for 10 min, and the supernatant was discarded. 5 mL of HEPES-Tyrode's buffer containing 1 μM PGE1 and 0.2 U/mL apyrase was added, slightly inverted, and then centrifuged at 800 g for 5 min, and the supernatant was discarded. 10 mL of HEPES-Tyrode's buffer containing 1 μM PGE1 and 0.2 U/mL apyrase was added, resuspended, and centrifuged at 1000 g for 5 min, and the supernatant was discarded. 2 mL of HEPES-Tyrode's buffer containing 1 μM PGE1+10% FBS-resuspended platelets was added, 200 μL was taken into a centrifuge tube and diluted to 2 mL. Then it was diluted to 1, 0.8, 0.6, 0.4, 0.2, 0.1, 0.08, 0.06, 0.04, 0.02, 0.01 times, the volume was complemented to 100 μL, and 50 μL of CTG reagent was added to detect cell viability. The maximum valid dilution with a fluorescence value not exceeding […] was selected for dilution, 90 μL/well was connected to a 96-well cell plate for chemiluminescence detection. A compound was prepared with HEPES-Tyrode's buffer containing 1 μM of PGE1+10% FBS, and added to the cells, which was gently beaten evenly and detected for cell viability by adding 50 μL CTG after 24 h.

[6] = biological target: human CYP3A4 enzyme (Homo sapiens (Human), UniProt P08684); assay: CYP3A4 enzyme inhibitory activity (Vivid CYP3A4 Green screening kit)
Method: The inhibitory activity of compounds on human CYP3A4 enzyme was detected using a VIVID™ CYP3A4 GREEN SCRNING KIT reagent kit. The Vivid™ CYP450 screening kit includes a Vivid™ substrate, Vivid™ fluorescence standard, reaction buffer, Vivid™ regeneration system, NADP+ and CYP450 BACULOSOMES™ Plus reagent. Operations were performed following the instructions, and a blank control group was set up without adding any compounds.
The IC50 value of the compounds inhibiting human CYP3A4 enzyme was calculated using Graphpad Prism 7.00 software through the formula Y=100/(1+10^((Log IC50−X)*HillSlope)).

[7] = biological target: BCL2 (Homo sapiens (Human), UniProt P10415); assay: Molecular level activity test of anti-apoptotic protein BCL2 (HTRF, binding to Bim peptide); settings: HTRF, binding of BCL2 to Bim peptide; read-out: BCL2 nM (inhibitory activity, IC50)
Procedure, shortened: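 HTRF readout; His-BCL2 + biotin-BIM peptide + cpd (2% DMSO in compound addition), 1 h; then anti-His + SA-XL665 detection reagents, 4 h RT.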

[8] = read-out: CYP3A4 (IC50), Vivid CYP3A4 Green screening kit

Sequence of human CYP3A4 enzyme (P08684 whole entry): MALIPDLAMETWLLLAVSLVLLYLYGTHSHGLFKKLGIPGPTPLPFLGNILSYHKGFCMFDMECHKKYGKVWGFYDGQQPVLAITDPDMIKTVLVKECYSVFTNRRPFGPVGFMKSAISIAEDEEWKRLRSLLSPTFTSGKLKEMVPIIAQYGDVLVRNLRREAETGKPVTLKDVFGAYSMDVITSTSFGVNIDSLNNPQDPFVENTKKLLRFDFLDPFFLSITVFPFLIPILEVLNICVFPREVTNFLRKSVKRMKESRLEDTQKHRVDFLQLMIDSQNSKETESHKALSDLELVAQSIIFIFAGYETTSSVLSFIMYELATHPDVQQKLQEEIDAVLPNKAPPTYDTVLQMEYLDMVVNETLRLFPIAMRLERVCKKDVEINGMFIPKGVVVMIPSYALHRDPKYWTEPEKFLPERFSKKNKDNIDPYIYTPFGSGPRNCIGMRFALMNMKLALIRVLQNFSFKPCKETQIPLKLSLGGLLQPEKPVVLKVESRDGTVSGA
Sequence of BCL-XL (Q07817 whole entry): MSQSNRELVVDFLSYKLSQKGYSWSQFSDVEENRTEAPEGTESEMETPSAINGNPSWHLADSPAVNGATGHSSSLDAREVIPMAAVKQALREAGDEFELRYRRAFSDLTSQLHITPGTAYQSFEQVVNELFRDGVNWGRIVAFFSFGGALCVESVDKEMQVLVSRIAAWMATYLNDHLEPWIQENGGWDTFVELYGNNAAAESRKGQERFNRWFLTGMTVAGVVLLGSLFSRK

| Compound | IC50 [1] [nM] | IC50 [2] [nM] | IC50 [3] [nM] | IC50 ([4]; values in nM) [nM] | IC50 [5] [nM] | IC50 [6] [nM] | IC50 [7] [nM] | IC50 ([4]; values given in μM) [nM] | IC50 [6, 8] [nM] |
| --- | --- | --- | --- | --- | --- | --- | --- | --- | --- |
| CC(C)c1ccccc1[C@@H]1CN(Cc2ccc(F)c(F)c2)CCN1C1CC2(CCN(c3cc(Oc4cnc5[nH]ccc5c4)c(C(=O)NS(=O)(=O)c4ccc(NCC5(F)CCOCC5)c([N+](=O)[O-])c4)cc3F)CC2)C1 [compound 190, (R)-2-((1H-pyrrolo[2,3-b]pyrid-5-yl)oxy)-4-(2-(4-(3,4-difluorobenzyl)-2-(2-isopropylphenyl)piperazin-1-yl)-7-azaspiro[3.5]non-7-yl)-5-fluoro-N-((4-(((4-fluorotetrahydro-2H-pyran-4-yl)methyl)amino)-3-nitrophenyl)sulfonyl)benzamide] | < 10 | < 10 | < 0.5 | > 500 | > 5000 | > 20000 |  |  |  |
| COc1ccc(CN2CCN(C3CC4(CCN(c5cc(Oc6cnc7[nH]ccc7c6)c(C(=O)NS(=O)(=O)c6ccc(NCC7(F)CCOCC7)c([N+](=O)[O-])c6)cc5F)CC4)C3)[C@H](c3ccccc3C(C)C)C2)cc1OC [compound 197, (R)-2-((1H-pyrrolo[2,3-b]pyrid-5-yl)oxy)-4-(2-(4-(3,4-dimethoxybenzyl)-2-(2-isopropylphenyl)piperazin-1-yl)-7-azaspiro[3.5]non-7-yl)-5-fluoro-N-((4-(((4-fluorotetrahydro-2H-pyran-4-yl)methyl)amino)-3-nitrophenyl)sulfonyl)benzamide] | < 10 | < 10 | < 0.5 |  | > 5000 |  | < 10 | > 1000 | > 20000 |
| CC(C)c1ccccc1[C@@H]1CN(Cc2cnn(C)c2)CCN1C1CC2(CCN(c3cc(Oc4cnc5[nH]ccc5c4)c(C(=O)NS(=O)(=O)c4ccc(NCC5(F)CCOCC5)c([N+](=O)[O-])c4)cc3F)CC2)C1 [compound 209, (R)-2-((1H-pyrrolo[2,3-b]pyrid-5-yl)oxy)-5-fluoro-N-((4-(((4-fluorotetrahydro-2H-pyran-4-yl)methyl)amino)-3-nitrophenyl)sulfonyl)-4-(2-(2-(2-isopropylphenyl)-4-((1-methyl-1H-pyrazole-4-yl)methyl)piperazin-1-yl)-7-azaspiro[3.5]non-7-yl)benzamide] | < 10 | < 10 | < 0.5 |  | > 5000 |  | < 10 | 1900 | > 20000 |
| COc1ccc(CN2CCN(C3CC4(CCN(c5cc(Oc6cnc7[nH]ccc7c6)c(C(=O)NS(=O)(=O)c6ccc(NCC7CCOCC7)c([N+](=O)[O-])c6)cc5F)CC4)C3)[C@H](c3ccccc3C(C)C)C2)cc1 [compound 239, (R)-2-((1H-pyrrolo[2,3-b]pyrid-5-yl)oxy)-5-fluoro-4-(2-(2-(2-isopropylphenyl)-4-(4-methoxybenzyl)piperazin-1-yl)-7-azaspiro[3.5]non-7-yl)-N-((3-nitro-4-(((tetrahydro-2H-pyran-4-yl)methyl)amino)phenyl)sulfonyl)benzamide] | < 10 |  | < 0.5 | > 500 | > 5000 |  | < 10 |  | > 20000 |
| COc1ccc(CN2CCN(C3CC4(CCN(c5cc(Oc6cnc7[nH]ccc7c6)c(C(=O)NS(=O)(=O)c6ccc(NC[C@H]7COCCO7)c([N+](=O)[O-])c6)cc5F)CC4)C3)[C@H](c3ccccc3C(C)C)C2)cc1 [compound 241, N-((4-((((S)-1,4-dioxan-2-yl)methyl)amino)-3-nitrophenyl)sulfonyl)-2-((1H-pyrrolo[2,3-b]pyrid-5-yl)oxy)-5-fluoro-4-(2-((R)-2-(2-isopropylphenyl)-4-(4-methoxybenzyl)piperazin-1-yl)-7-azaspiro[3.5]non-7-yl)benzamide] | < 10 | < 10 | < 0.5 | > 500 | > 5000 |  | < 10 |  |  |
| COc1ccc(CN2CCN(C3CC4(CCN(c5cc(Oc6cnc7[nH]ccc7c6)c(C(=O)NS(=O)(=O)c6ccc(NCC7(F)CCOCC7)c([N+](=O)[O-])c6)cc5F)CC4)C3)[C@H](c3ccccc3C(C)C)C2)cn1 [compound 242, (R)-2-((1H-pyrrolo[2,3-b]pyrid-5-yl)oxy)-5-fluoro-N-((4-(((4-fluorotetrahydro-2H-pyran-4-yl)methyl)amino)-3-nitrophenyl)sulfonyl)-4-(2-(2-(2-isopropylphenyl)-4-((6-methoxypyrid-3-yl)methyl)piperazin-1-yl)-7-azaspiro[3.5]non-7-yl)benzamide] | < 10 | < 10 | < 0.5 | > 500 | > 5000 |  | < 10 |  | > 20000 |
| COc1cc(CN2CCN(C3CC4(CCN(c5cc(Oc6cnc7[nH]ccc7c6)c(C(=O)NS(=O)(=O)c6ccc(NCC7(F)CCOCC7)c([N+](=O)[O-])c6)cc5F)CC4)C3)[C@H](c3ccccc3C(C)C)C2)ccc1CN(C)C [compound 247, (R)-2-((1H-pyrrolo[2,3-b]pyrid-5-yl)oxy)-4-(2-(4-(4-((dimethylamino)methyl)-3-methoxybenzyl)-2-(2-isopropylphenyl)piperazin-1-yl)-7-azaspiro[3.5]non-7-yl)-5-fluoro-N-((4-(((4-fluorotetrahydro-2H-pyran-4-yl)methyl)amino)-3-nitrophenyl)sulfonyl)benzamide] | < 10 | < 10 | 0.5 to 1 | > 500 | > 5000 |  | < 10 |  |  |
| COc1ccc(CN2CCN(C3CC4(CCN(c5cc(Oc6cnc7[nH]cc(F)c7c6)c(C(=O)NS(=O)(=O)c6ccc(NCC7(F)CCOCC7)c([N+](=O)[O-])c6)cc5F)CC4)C3)[C@H](c3ccccc3C(C)C)C2)cc1 [compound 252, (R)-5-fluoro-2-((3-fluoro-1H-pyrrolo[2,3-b]pyrid-5-yl)oxy)-N-((4-(((4-fluorotetrahydro-2H-pyran-4-yl)methyl)amino)-3-nitrophenyl)sulfonyl)-4-(2-(2-(2-isopropylphenyl)-4-(4-methoxybenzyl)piperazin-1-yl)-7-azaspiro[3.5]non-7-yl)benzamide] | < 10 | < 10 | 0.5 to 1 | > 500 | > 5000 |  | < 10 |  |  |
